Assay type in all cases: cell-based
Assay [1] concerns Klebsiella pneumoniae PCI 602. The experiment in a line: Minimum Inhibitory Concentration (MIC), antibacterial spectrum in vitro. As to conditions: Klebsiella pneumoniae PCI 602; for MIC: PCI602, read-out: Minimum Inhibitory Concentration (MIC).
In assay [2] the test system is Pseudomonas aeruginosa E-2. The assay is described as above. The settings on record: Pseudomonas aeruginosa E-2; for MIC: E2, read-out: Minimum Inhibitory Concentration (MIC).
For assay [3], the system named is Staphylococcus aureus 209 P JC-1. The description is as above. As to conditions: Staphylococcus aureus 209 P JC-1; for MIC: 209PJC1, read-out: Minimum Inhibitory Concentration (MIC).
For assay [4], the system named is Citrobacter freundii GN-346. The assay is described as above. The settings on record: Citrobacter freundii GN-346; for MIC: GN346, read-out: Minimum Inhibitory Concentration (MIC).
Assay [5] deals with Salmonella typhimurium LT-2. Described as above. The settings on record: Salmonella typhimurium LT-2; for MIC: Salmonella enterica, read-out: Minimum Inhibitory Concentration (MIC).
For assay [6], the system named is Streptococcus faecalis ATCC 8043. The description is as above. The settings on record: Streptococcus faecalis ATCC 8043; for MIC: Enterococcus faecalis, ATCC8043, read-out: Minimum Inhibitory Concentration (MIC).
Assay [7] relates to Pseudomonas aeruginosa MB-3833. Described as above. As to conditions: Pseudomonas aeruginosa MB-3833; for MIC: MB3833, read-out: Minimum Inhibitory Concentration (MIC).
Assay [8] deals with Esherichia coli NIHJ JC-2. The assay is described as above.
The test system of assay [9] is Proteus morganii 1510. The assay is described as above. As to conditions: Proteus morganii 1510; for MIC: Morganella morganii, read-out: Minimum Inhibitory Concentration (MIC).
For assay [10], the system named is Pseudomonas aeruginosa. The experiment in a line: Antibacterial activity against Pseudomonas aeruginosa (from Table 1). As to conditions: in words.

In brackets after ≈: the same amount, converted by molar mass. Where a name gives a salt, the structure may show the parent alone.

As for `CCN1CCN(C(=O)NC(C(=O)NC2C(=O)N3C(C(=O)[O-])=C(CSc4cc[n+](C)cc4)COC23)c2csc(N)n2)C(=O)C1=O` (racemic) [Compound 20, (6R,7R)-7-(DL-2-(2-Aminothiazole-4-yl)-2-(4-ethyl-2,3-dioxopiperazine-1-ylcarboxamide)acetamide)-3-(1-methylpyridinium-4-ylthiomethyl)-1-oxa-1-dethiaceph-3-em-4-carboxylate (Sodium Salt)], the MIC in assay [1] was 0.2 µg/mL; in [2], 25 µg/mL; in assay [3] it was 0.39 µg/mL; in assay [4], 25 µg/mL; in [5], 0.2 µg/mL; in assay [6], > 100 µg/mL. In addition, the MIC in assay [7] is 100 µg/mL; in assay [8] it was 0.1 µg/mL; in assay [9] it was 6.25 µg/mL.
Turning to `CCN1CCN(C(=O)NC(C(=O)NC2C(=O)N3C(C(=O)[O-])=C(CSc4cc[n+](CC(=O)O)cc4)COC23)c2csc(N)n2)C(=O)C1=O` (racemic) [Compound 21, (6R,7R)-7-(DL-2-(2-Aminothiazole-4-yl)-2-(4-ethyl-2,3-dioxopiperazine-1-ylcarboxamide)acetamide)-3-(1-carboxymethylpyridinium-4-yl-thiomethyl)-1-oxa-1-dethiaceph-3-em-4-carboxylate (Sodium Salt)], the MIC in [1] was 0.05 µg/mL; in assay [2], > 100 µg/mL; in assay [3] it was 1.56 µg/mL; in assay [4] it was > 100 µg/mL; in [5], 0.1 µg/mL; in [6] it was 50 µg/mL. Moreover, the MIC in assay [7] is > 100 µg/mL; in assay [8], 0.05 µg/mL; in [9], 12.5 µg/mL.
Consider `CC[n+]1ccc(SCC2=C(C(=O)[O-])N3C(=O)C(NC(=O)C(=NOC(C)(C)C(=O)O)c4csc(N)n4)C3OC2C)cc1` [Compound 2, (6R,7R)-7-((Z)-2-(2-Aminothiazole-4-yl)-2-(2-carboxyprop-2-oxyimino)acetamide)-(2S)-2-methyl-3-(1-ethyl-pyridinium-4-ylthiomethyl)-1-oxa-1-dethiaceph-3-em-4-carboxylate (Sodium Salt)], for which the MIC in [1] was 0.2 µg/mL; in assay [2] it was 3.13 µg/mL; in assay [3], 0.78 µg/mL; in [4], 0.78 µg/mL; in [5], < 0.025 µg/mL; in assay [6] it was 50 µg/mL. The MIC was 3.13 µg/mL in assay [7], 0.2 µg/mL in assay [8] and 0.1 µg/mL in assay [9]. Also, in [10], the “effectiveness against Pseudomonas aeruginosa” value (shortened to “effectiveness”) was “effective against Pseudomonas aeruginosa”.
As to `CC1OC2C(NC(=O)C(=NOC(C)(C)C(=O)O)c3csc(N)n3)C(=O)N2C(C(=O)[O-])=C1CSc1cc[n+](CCF)cc1` [Compound 3, (6R,7R)-7-((Z)-2-(2-Aminothiazole-4-yl)-2-(2-carboxyprop-2-oxyimino)acetamide)-(2S)-2-methyl-3-(1-(2-fluoroethyl)pyridinium-4-ylthiomethyl)-1-oxa-1-dethiaceph-3-em-4-carboxylate (Sodium Salt)], the MIC in assay [1] was 0.2 µg/mL; in assay [2], 1.56 µg/mL; in [3], 0.78 µg/mL; in assay [4], 0.78 µg/mL; in assay [5], < 0.025 µg/mL; in [6], 25 µg/mL. Moreover, the values for the MIC in assay [7], in [8] and in [9] were 1.56 µg/mL, 0.2 µg/mL and 0.2 µg/mL, respectively. In assay [10], the “effectiveness” value was “effective against Pseudomonas aeruginosa”.
On to `CC1OC2C(NC(=O)C(=NOC(C)(C)C(=O)O)c3csc(N)n3)C(=O)N2C(C(=O)[O-])=C1CSc1cc[n+](CC(F)(F)F)cc1` [Compound 4, (6R,7R)-7-((Z)-2-(2-Aminothiazole-4-yl)-2-(2-carboxyprop-2-oxyimino)acetamide)-(2S)-2-methyl-3-(1-(2,2,2-trifluoroethyl)pyridinium-4-ylthionethyl)-1-oxa-1-dethia-3-ceph-4-carboxylate (Sodium Salt)], for which the MIC in assay [1] was determined as 0.39 µg/mL; in [2] it was 3.13 µg/mL; in [3] it was 1.56 µg/mL; in [4], 1.56 µg/mL; in assay [5], 0.05 µg/mL; in [6], 50 µg/mL. The MIC came to 3.13 µg/mL in assay [7], 0.2 µg/mL in [8] and 0.2 µg/mL in [9]. In addition, the “effectiveness” value in [10] was “effective against Pseudomonas aeruginosa”.
With `CC1OC2C(NC(=O)C(=NOC(C)(C)C(=O)O)c3csc(N)n3)C(=O)N2C(C(=O)[O-])=C1CSc1cc[n+](CC(=O)O)cc1` [Compound 5, (6R,7R)-7-((Z)-2-(2-Aminothiazole-4-yl)-2-(2-carboxyprop-2-oxyimino)acetamide)-(2S)-2-methyl-3-(1-carboxymethylpyridinium-4-ylthiomethyl-1-oxa-1-dethiaceph-3-em-4-carboxylate (Sodium Salt)], the MIC in [1] was determined as 0.39 µg/mL; in [2] it was 6.25 µg/mL; in assay [3] it was 12.5 µg/mL; in assay [4] it was 3.13 µg/mL; in [5], 0.1 µg/mL; in [6], 50 µg/mL. The results for the MIC in assay [7], in assay [8] and in assay [9] were 3.13 µg/mL, 0.39 µg/mL and 1.56 µg/mL, respectively.
Take `CC(C)(ON=C(C(=O)NC1C(=O)N2C(C(=O)[O-])=C(CSc3cc[n+](CCF)cc3)COC12)c1csc(N)n1)C(=O)O` [Compound 15, (6R,7R)-7-((Z)-2-(2-Aminothiazole-4-yl)-2-2-carboxyprop-2-oxyimino)acetamide)-3-((2-fluoroethyl)pyridinium-4-ylthiomethyl)-1-oxa-1-dethiaceph-3-em-4-carboxylate]: the MIC turned out to be 0.1 µg/mL (≈ 0.164 µM) in assay [1]; 3.13 µg/mL (≈ 5.14 µM) in assay [2]; 6.25 µg/mL (≈ 10.3 µM) in assay [3]; 50 µg/mL (≈ 82.2 µM) in [4]; 0.5 µg/mL (≈ 0.822 µM) in assay [5]; 50 µg/mL (≈ 82.2 µM) in [6]. Besides, the results for the MIC in [7], in [8] and in assay [9] were 3.13 µg/mL (≈ 5.14 µM), 0.1 µg/mL (≈ 0.164 µM) and 6.25 µg/mL (≈ 10.3 µM), respectively. Also, the “effectiveness” value in assay [10] was “effective against Pseudomonas aeruginosa”.
Turning to `CC1OC2C(NC(=O)C(=NOC(C)(C)C(=O)O)c3csc(N)n3)C(=O)N2C(C(=O)[O-])=C1CSc1cc[n+](C(CF)CF)cc1` [Compound 17, (6R,7R)-7-((Z)-2-(2-Aminothiazole-4-yl)-2-(2-carboxyprop-2-oxyimino)acetamide)-(2S)-2-methyl-3-(1-(1,3-difluoroprop-2-yl)-pyridinium-4-ylthiomethyl)-1-oxa-1-dethiaceph-3-em-4-carboxylate (Sodium Salt)], the MIC was 0.05 µg/mL in [1]; 1.56 µg/mL in [2]; 0.78 µg/mL in assay [3]; 1.56 µg/mL in [4]; < 0.025 µg/mL in assay [5]; 25 µg/mL in [6]. Further, the values for the MIC in [7], in assay [8] and in assay [9] were 1.56 µg/mL, 0.025 µg/mL and 0.2 µg/mL, respectively.
Regarding `C[C@@H]1O[C@@H]2[C@@H](NC(=O)/C(=N\OCC(=O)[O-])c3csc(N)n3)C(=O)N2C(C(=O)[O-])=C1CSc1cc[n+](C)cc1.[Na+]` [Compound 18, (6R,7R)-7-((Z)-2-(2-Aminothiazole-4-yl)-2-carboxymethoxyiminoacetamide)-(2S)-2-methyl-3-(1-methylpyridinium-4-ylthiomethyl)-1-oxa-1-dethiaceph-3-em-4-carboxylate (Sodium Salt)], the “Minimum Inhibitory Concentration (MIC)” value is 0.10 µg/mL in [1]; 1.56 µg/mL in assay [2]; 0.78 µg/mL in assay [3]; 1.56 µg/mL in [4]; < 0.025 µg/mL in assay [5]; 25 µg/mL in [6]. For the same compound, the “Minimum Inhibitory Concentration (MIC)” value in assay [7] worked out at 1.56 µg/mL; in [8], 0.05 µg/mL; in assay [9], 0.10 µg/mL.
Regarding `CC1OC2C(NC(=O)C(=NOCC(=O)O)c3csc(N)n3)C(=O)N2C(C(=O)[O-])=C1CSc1cc[n+](CCF)cc1` [Compound 19, (6R,7R)-7-((Z)-2-(2-Aminothiazole-4-yl)-2-carboxymethoxyiminoacetamide)-(2S)-2-methyl-3-(1-(2-fluoroethyl)pyridinium-4-ylthiomethyl)-1-oxa-1-dethiaceph-3-em-4-carboxylate (Sodium Salt)], the MIC in assay [1] was 0.39 µg/mL; in assay [2], 3.13 µg/mL; in [3], 3.13 µg/mL; in assay [4], 1.56 µg/mL; in assay [5], 0.1 µg/mL; in [6] it was > 100 µg/mL. In addition, the MIC turned out to be 3.13 µg/mL in assay [7], 0.78 µg/mL in assay [8] and 0.2 µg/mL in assay [9].

These data come from patent US4645769A, “1-oxa-1-dethia-cephalosporin compounds and antibacterial agent comprising the same” (Merck & Co., Inc., priority 1985, dated 1987).
